# Data: patent publication US9637493B2, “Substituted pyrrolopyrimidines as HDM2 inhibitors” (Merck Sharp & Dohme Corp., priority 2012, dated 2017)
# Biological target: HDM2 (Homo sapiens (Human), UniProt Q00987)
# Test: HDM2 FRET assay (inhibition of p53 peptide binding to HDM2)
# Settings: truncated HDM2 residues 17 to 125, 0.5 nM; FITC labeled 8-mer peptide 3 nM; two hour incubation at room temperature
# Procedure: Methods: An HDM2 FRET assay was developed to assess the compounds' inhibitory activity towards binding of p53 protein. […] (containing p53 binding surface, Science (1994) 265, 346-355), with N-terminal His and Thioredoxin tag was generated in pET32a expression vector and expressed in E. coli strain BL21(DE3)Rosetta. Protein was purified using Ni-affinity chromatography, followed by size exclusion chromatography using Superdex 75 26/60 column. […] After two hour incubation at room temperature in a humidified chamber plates were read on EnVision plate reader with the following settings: excitation: UV, […], two emission filters: 520 nm and 495 nm respectively. […] IC50 DETERMINATIONS: Dose-response curves were plotted from the inhibition data, from 10 point serial dilutions of inhibitory compounds. Concentration of compound was plotted against em520/Cem495 ratio signal. To generate IC50 values, the dose-response curves were fitted to a standard sigmoidal curve and IC50 values were derived by nonlinear regression analysis.
# Chain of HDM2 (Q00987 17-125): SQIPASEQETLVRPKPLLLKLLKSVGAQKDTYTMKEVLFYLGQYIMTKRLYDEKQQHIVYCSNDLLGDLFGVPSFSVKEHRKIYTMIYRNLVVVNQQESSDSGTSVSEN
row,SMILES,IC50
1,"Cc1cccc(-c2cc3nc(C(=O)O)nc(N[C@H](C)C4CCC4)c3n2Cc2ccc(Cl)c(F)c2)c1 [Example 3.1, 5-(4-chloro-3-fluorobenzyl)-4-{[(1R)-1-cyclobutylethyl]amino}-6-(3-methylphenyl)-5H-pyrrolo[3,2-d]pyrimidine-2-carboxylic acid]",21 nM
2,"Cc1cccc(-c2cc3nc(C(=O)O)nc(N[C@H](C)C4CCC4)c3n2Cc2ccc(C(F)F)cc2)c1 [Example 3.2, 4-{[(1R)-1-cyclobutylethyl]amino}-5-[4-(difluoromethyl)benzyl]-6-(3-methylphenyl)-5H-pyrrolo[3,2-d]pyrimidine-2-carboxylic acid]",530 nM
3,"Cc1cccc(-c2cc3nc(C(=O)O)nc(N[C@H](C)C4CCC4)c3n2Cc2ccc(C(F)(F)F)nc2)c1 [Example 3.3, 4-{[(1R)-1-cyclobutylethyl]amino}-6-(3-methylphenyl)-5-{[6-(trifluoromethyl)pyridin-3-yl]methyl}-5H-pyrrolo[3,2-d]pyrimidine-2-carboxylic acid]",178 nM
4,"Cc1cccc(-c2cc3nc(C(=O)O)nc(N[C@H](C)C4CCC4)c3n2Cc2ccc(Br)c(F)c2)c1 [Example 3.4, 5-(4-bromo-3-fluorobenzyl)-4-{[(1R)-1-cyclobutylethyl]amino}-6-(3-methylphenyl)-5H-pyrrolo[3,2-d]pyrimidine-2-carboxylic acid]",15 nM
5,"Cc1cccc(-c2cc3nc(C(=O)O)nc(N[C@H](C)C4CCC4)c3n2Cc2ccc(F)c(F)c2)c1 [Example 3.5, 4-{[(1R)-1-cyclobutylethyl]amino}-5-(3,4-difluorobenzyl)-6-(3-methylphenyl)-5H-pyrrolo[3,2-d]pyrimidine-2-carboxylic acid]",126 nM
6,"Cc1cccc(-c2cc3nc(C(=O)O)nc(N[C@H](C)C4CCC4)c3n2Cc2ccc(C)c(F)c2)c1 [Example 3.6, 4-{[(1R)-1-cyclobutylethyl]amino}-5-(3-fluoro-4-methylbenzyl)-6-(3-methylphenyl)-5H-pyrrolo[3,2-d]pyrimidine-2-carboxylic acid]",124 nM
7,"C[C@H]1CC[C@H](Cn2ccc3nc(C(=O)O)nc(-c4cccc(Cl)c4)c32)CC1 [Example 4.1, 4-(3-chlorophenyl)-5-[(trans-4-methylcyclohexyl)methyl]-5H-pyrrolo[3,2-d]pyrimidine-2-carboxylic acid]",294 nM
8,"C[C@H]1CC[C@H](Cn2ccc3nc(-c4noc(=O)[nH]4)nc(-c4cccc(Cl)c4)c32)CC1 [Example 4.2, 3-{4-(3-chlorophenyl)-5-[(trans-4-methylcyclohexyl)methyl]-5H-pyrrolo[3,2-d]pyrimidin-2-yl}-1,2,4-oxadiazol-5(4H)-one]",132 nM
9,"C[C@H]1CC[C@H](Cn2ccc3nc(C(=O)O)nc(-c4cncc(Cl)c4)c32)CC1 [Example 4.3, 4-(5-chloropyridin-3-yl)-5-[(trans-4-methylcyclohexyl)methyl]-5H-pyrrolo[3,2-d]pyrimidine-2-carboxylic acid]",247 nM
10,"C[C@H]1CC[C@H](Cn2ccc3nc(-c4noc(=O)[nH]4)nc(-c4cncc(Cl)c4)c32)CC1 [Example 4.4, 3-{4-(5-chloropyridin-3-yl)-5-[(trans-4-methylcyclohexyl)methyl]-5H-pyrrolo[3,2-d]pyrimidin-2-yl}-1,2,4-oxadiazol-5(4H)-one]",57 nM
11,"C[C@H]1CC[C@H](Cn2ccc3nc(-c4n[nH]c(=O)o4)nc(-c4cncc(Cl)c4)c32)CC1 [Example 4.5, 5-{4-(5-chloropyridin-3-yl)-5-[(trans-4-methylcyclohexyl)methyl]-5H-pyrrolo[3,2-d]pyrimidin-2-yl}-1,3,4-oxadiazol-2(3H)-one]",95 nM
12,"Cc1cn(C[C@H]2CC[C@H](C)CC2)c2c(-c3cccc(Cl)c3)nc(C(=O)O)nc12 [Example 5.1, 4-(3-chlorophenyl)-7-methyl-5-[(trans-4-methylcyclohexyl)methyl]-5H-pyrrolo[3,2-d]pyrimidine-2-carboxylic acid]",226 nM
